Assay results published in ChEMBL document CHEMBL1201862, “PubChem BioAssay data set” (2004).
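A five-concentration, 48-hour dose response in 96-well plates underlies each endpoint, interpolated linearly between surrounding concentrations. GI50: concentration for 50% inhibition of growth.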 Active and inactive are the calls of the source. No stated cut-off is given here; in the data, active = GI50 up to about 1.1 µM and inactive = higher.

Experiments:
Experiment in all cases: inhibition of tumour cell growth, NCI panel, 48 h
UACC-257 = system: UACC-257
HOP-62 = system: HOP-62
ACHN = system: ACHN
K562 = system: K562
MDA-N = system: MDA-N
NCI/ADR-RES = system: NCI/ADR-RES
OVCAR-8 = system: OVCAR-8
DU-145 = system: DU-145
NCI-H23 = system: NCI-H23
SNB-19 = system: SNB-19
HOP-92 = system: HOP-92
SK-OV-3 = system: SK-OV-3
SW-620 = system: SW-620
UACC-62 = system: UACC-62
SNB-75 = system: SNB-75
T47D = system: T47D
786-0 = system: 786-0
HCT-15 = system: HCT-15
PC-3 = system: PC-3
SF-539 = system: SF-539

**Q.** What does the source list for `COC(=O)[C@]1(C)CC[C@]2(C)CC[C@]3(C)C4[C@H]5Oc6c(cc7c(c6C)CCC6[C@@]7(C)CC[C@@]7(C)C8[C@](C)(CCC[C@@]8(C)C(=O)OC)CC[C@]67C)O[C@H]5c5c(cc6c(c5C)O[C@@]5(C)C7=CC=C8[C@@](C)(CC[C@@]9(C)[C@@H]%10C[C@](C)(C(=O)OC)CC[C@]%10(C)CC[C@]89C)C7=CC(=O)[C@@]5(O)O6)[C@]4(C)CC[C@@]3(C)C2C1` (stereo not given in full)?
**A.** GI50 (UACC-257): 2.83 µM (inactive); GI50 (HOP-62): 8.51 µM (inactive); GI50 (ACHN): 3.94 µM (inactive); GI50 (K562): 3.46 µM (inactive); GI50 (MDA-N): 1.93 µM (inactive); GI50 (NCI/ADR-RES): > 12.5 µM (inactive); GI50 (OVCAR-8): 2.63 µM (inactive); GI50 (DU-145): 3.6 µM (inactive); GI50 (NCI-H23): 8.97 µM (inactive); GI50 (SNB-19): 5.05 µM (inactive); GI50 (HOP-92): 1.92 µM (inactive); GI50 (SK-OV-3): > 12.5 µM (inactive); GI50 (SW-620): 2.53 µM (inactive); GI50 (UACC-62): 2.32 µM (inactive); GI50 (SNB-75): 2.79 µM (inactive); GI50 (T47D): 2.11 µM (inactive); GI50 (786-0): 1.86 µM (inactive); GI50 (HCT-15): 3.45 µM; GI50 (PC-3): 4.15 µM (inactive); GI50 (SF-539): 2.63 µM (inactive)

**Q.** What does the source list for `COc1ccc(N2C(=O)C3c4[nH]c5cccc(Cl)c5c4C4CCC(C(C)(C)C)CC4C3C2=O)cc1` (stereo not given)?
**A.** GI50 (UACC-257): > 100 µM (inactive); GI50 (HOP-62): 16.3 µM (inactive); GI50 (ACHN): > 100 µM (inactive); GI50 (K562): > 100 µM (inactive); GI50 (MDA-N): > 100 µM (inactive); GI50 (NCI/ADR-RES): > 100 µM (inactive); GI50 (OVCAR-8): 84.3 µM (inactive); GI50 (DU-145): > 100 µM (inactive); GI50 (NCI-H23): > 100 µM (inactive); GI50 (SNB-19): 41.5 µM (inactive); GI50 (HOP-92): 83.2 µM (inactive); GI50 (SK-OV-3): 64.9 µM (inactive); GI50 (SW-620): > 100 µM (inactive); GI50 (UACC-62): > 100 µM (inactive); GI50 (SNB-75): 19.1 µM (inactive); GI50 (T47D): > 100 µM (inactive); GI50 (786-0): 31.6 µM (inactive); GI50 (HCT-15): > 100 µM; GI50 (PC-3): > 100 µM (inactive); GI50 (SF-539): 64.7 µM (inactive)

**Q.** Which GI50 (UACC-257) does the source give for `O=C1C(N2CCN(c3ccccn3)CC2)=C(Cl)C(=O)c2ncccc21` here?
**A.** 2.96 µM (inactive)

**Q.** And the GI50 (HOP-62)?
**A.** > 10 µM (inactive)

**Q.** What about the GI50 (ACHN) of the same compound?
**A.** 2.14 µM (inactive)

**Q.** What about the GI50 (K562) of the same compound?
**A.** 1.51 µM (inactive)

**Q.** What about the GI50 (MDA-N) of the same compound?
**A.** 1.66 µM (inactive)

**Q.** What about the GI50 (NCI/ADR-RES) of the same compound?
**A.** 5.22 µM (inactive)

**Q.** And the GI50 (OVCAR-8)?
**A.** > 4.45 µM (inactive)

**Q.** And the GI50 (DU-145)?
**A.** > 6.76 µM (inactive)

**Q.** And the GI50 (NCI-H23)?
**A.** 1.85 µM (inactive)

**Q.** What about the GI50 (SNB-19) of the same compound?
**A.** > 10 µM (inactive)

**Q.** What about the GI50 (HOP-92) of the same compound?
**A.** 1.58 µM (inactive)

**Q.** And the GI50 (SK-OV-3)?
**A.** > 10 µM (inactive)

**Q.** And the GI50 (SW-620)?
**A.** 1.23 µM (inactive)

**Q.** And the GI50 (UACC-62)?
**A.** 2.54 µM (inactive)

**Q.** And the GI50 (SNB-75)?
**A.** > 10 µM (inactive)

**Q.** And the GI50 (T47D)?
**A.** 2.06 µM (inactive)

**Q.** And the GI50 (786-0)?
**A.** 1.78 µM (inactive)

**Q.** And the GI50 (HCT-15)?
**A.** 1.95 µM

**Q.** What about the GI50 (PC-3) of the same compound?
**A.** > 9.16 µM (inactive)

**Q.** And the GI50 (SF-539)?
**A.** > 10 µM (inactive)

**Q.** What does the source list for `COC(=O)[C@@H](COC(=O)/C=C/c1ccc(OC(C)=O)c(OC(C)=O)c1)NC(=O)/C=C/c1ccc(OC(C)=O)c(OC(C)=O)c1`?
**A.** GI50 (UACC-257): 51.8 µM (inactive); GI50 (HOP-62): 25.6 µM (inactive); GI50 (ACHN): 32.2 µM (inactive); GI50 (K562): > 100 µM (inactive); GI50 (MDA-N): 18.3 µM (inactive); GI50 (NCI/ADR-RES): 51.5 µM (inactive); GI50 (OVCAR-8): 22.5 µM (inactive); GI50 (DU-145): 22.8 µM (inactive); GI50 (NCI-H23): 28.1 µM (inactive); GI50 (SNB-19): 44.5 µM (inactive); GI50 (HOP-92): 32.7 µM (inactive); GI50 (SK-OV-3): 55.5 µM (inactive); GI50 (SW-620): 33.3 µM (inactive); GI50 (UACC-62): 19.6 µM (inactive); GI50 (SNB-75): 20.9 µM (inactive); GI50 (T47D): 11.1 µM (inactive); GI50 (786-0): 14.8 µM (inactive); GI50 (HCT-15): 19.7 µM; GI50 (PC-3): 23.1 µM (inactive); GI50 (SF-539): 19 µM (inactive)

**Q.** Which GI50 (UACC-257) does the source give for `C=C1C[C@@H](O)[C@@H](Br)C(C)(C)[C@@]12C=CC(=O)CC2` here?
**A.** > 100 µM (inactive)

**Q.** What about the GI50 (HOP-62) of the same compound?
**A.** > 100 µM (inactive)

**Q.** And the GI50 (ACHN)?
**A.** > 100 µM (inactive)

**Q.** What about the GI50 (K562) of the same compound?
**A.** > 100 µM (inactive)

**Q.** And the GI50 (MDA-N)?
**A.** > 100 µM (inactive)

**Q.** And the GI50 (NCI/ADR-RES)?
**A.** > 100 µM (inactive)

**Q.** And the GI50 (OVCAR-8)?
**A.** > 100 µM (inactive)

**Q.** And the GI50 (DU-145)?
**A.** > 100 µM (inactive)

**Q.** And the GI50 (NCI-H23)?
**A.** > 100 µM (inactive)

**Q.** What about the GI50 (SNB-19) of the same compound?
**A.** > 100 µM (inactive)

**Q.** What about the GI50 (HOP-92) of the same compound?
**A.** > 100 µM (inactive)

**Q.** What about the GI50 (SK-OV-3) of the same compound?
**A.** > 100 µM (inactive)

**Q.** And the GI50 (SW-620)?
**A.** > 100 µM (inactive)

**Q.** What about the GI50 (UACC-62) of the same compound?
**A.** > 100 µM (inactive)

**Q.** What about the GI50 (SNB-75) of the same compound?
**A.** > 63.2 µM (inactive)

**Q.** What about the GI50 (T47D) of the same compound?
**A.** > 100 µM (inactive)

**Q.** What about the GI50 (786-0) of the same compound?
**A.** > 100 µM (inactive)

**Q.** What about the GI50 (HCT-15) of the same compound?
**A.** > 100 µM

**Q.** What about the GI50 (PC-3) of the same compound?
**A.** 1.5 µM (inactive)

**Q.** What about the GI50 (SF-539) of the same compound?
**A.** > 100 µM (inactive)
